Experimental data as given in US6770596B1, “Fused tricyclic compounds, process for their preparation, and herbicidal compositions containing them” (Ishihara Sangyo Kaisha Ltd., priority 2002, dated 2004).

Tests used:
Type in all cases: in vivo
[1] = system: redroot pigweed (Amaranthus retroflexus, AMR); assay: Pre-emerge test, redroot pigweed; details: 250 g ai/ha, 14 days after application, rating scale 0-100 (0 no damage, 100 complete death)
From the text: (§1) A standard greenhouse herbicide activity screening system was used to evaluate the herbicidal efficacy and crop safety of these test compounds. Seven broadleaf weed species including redroot pigweed (Amaranthus retroflexus, AMR), velvetleaf (Abutilon theophrasti, ABT), sicklepod (Cassia obtusifolia, CAO), ivyleaf morningglory (Ipomoea hederacea, IPH), lambsquarters (Chenopodium album, CHA), common ragweed (Ambrosia artemisiifolia L., AML), and cocklebur (Xanthium strumariunt, XAS) were used as test species. Four grass weed species including green foxtail (Setaria viridis, SEV), barnyardgrass (Echinachloa crus-galli, ECC), johnsongrass (Sorghum halepense, SOH), and large crabgrass (Digitaria sanguinalis, DIS) were also used. In addition, four crop species, field corn (Zea mays L., var. Dekalb 535, CORN), soybean (Glycine max L., var. Pella 86, SOY), upland rice (Oryza sp., var.Tebonnet, RICE), and wheat (Triticum aestivum) were included all plants were grown in 10 cm square plastic pots which were filled with a sandy loam soil mix.
(§2) For pre-emerge tests, seeds were planted one day prior to application of the test compounds. All test compounds were dissolved in acetone and applied to the test pots in a volume of 187 l/ha. Test materials were applied at rates ranging from 8 g ai/ha to 1000 g ai/ha using a track sprayer equipped with a TJ8001E even flow flat fan spray nozzle. This application simulates a typical commercial field herbicide application.
(§3) At 14 days after application of the test materials, phytotoxicity ratings were recorded. A rating scale of 0-100 was used for both pre and post emerge tests as previously described in Research Methods in Weed Science, 2nd edition, B, Truelove, Ed., Southern Weed Science Society, Auburn University, Auburn, Ala., 1977. Briefly, “0” corresponds to no damage and “100” corresponds to complete death of all plants in the test unit. This scale was used both to determine efficacy against weed species and damage to crop species. Herbicide activity data for various compounds of this invention, which are shown by compound No. in Tables 1-3, are shown in Tables 5 and 6.

[2] = system: velvetleaf (Abutilon theophrasti, ABT); assay: Pre-emerge test, velvetleaf; details: 250 g ai/ha, 14 days after application, rating scale 0-100 (0 no damage, 100 complete death)
From the text: as §1, §2, §3

[3] = system: sicklepod (Cassia obtusifolia, CAO); assay: Pre-emerge test, sicklepod; details: 250 g ai/ha, 14 days after application, rating scale 0-100 (0 no damage, 100 complete death)
From the text: as §1, §2, §3

[4] = system: ivyleaf morningglory (Ipomoea hederacea, IPH); assay: Pre-emerge test, ivyleaf morningglory; details: 250 g ai/ha, 14 days after application, rating scale 0-100 (0 no damage, 100 complete death)
From the text: as §1, §2, §3

[5] = system: lambsquarters (Chenopodium album, CHA); assay: Pre-emerge test, lambsquarters; details: 250 g ai/ha, 14 days after application, rating scale 0-100 (0 no damage, 100 complete death)
From the text: as §1, §2, §3

[6] = system: common ragweed (Ambrosia artemisiifolia L., AML); assay: Pre-emerge test, common ragweed; details: 250 g ai/ha, 14 days after application, rating scale 0-100 (0 no damage, 100 complete death)
From the text: as §1, §2, §3

[7] = system: cocklebur (Xanthium strumariunt, XAS); assay: Pre-emerge test, cocklebur; details: 250 g ai/ha, 14 days after application, rating scale 0-100 (0 no damage, 100 complete death)
From the text: as §1, §2, §3

[8] = system: green foxtail (Setaria viridis, SEV); assay: Pre-emerge test, green foxtail; details: 250 g ai/ha, 14 days after application, rating scale 0-100 (0 no damage, 100 complete death)
From the text: as §1, §2, §3

[9] = system: barnyardgrass (Echinachloa crus-galli, ECC); assay: Pre-emerge test, barnyardgrass; details: 250 g ai/ha, 14 days after application, rating scale 0-100 (0 no damage, 100 complete death)
From the text: as §1, §2, §3

[10] = system: johnsongrass (Sorghum halepense, SOH); assay: Pre-emerge test, johnsongrass; details: 250 g ai/ha, 14 days after application, rating scale 0-100 (0 no damage, 100 complete death)
From the text: as §1, §2, §3

[11] = system: large crabgrass (Digitaria sanguinalis, DIS); assay: Pre-emerge test, large crabgrass; details: 250 g ai/ha, 14 days after application, rating scale 0-100 (0 no damage, 100 complete death)
From the text: as §1, §2, §3

[12] = system: field corn (Zea mays L., var. Dekalb 535, CORN); assay: Pre-emerge test, crop damage field corn; details: pre-emerge, 250 g ai/ha, 14 days after application, rating scale 0-100 (0 no damage, 100 complete death)
From the text: as §1, §2, §3

[13] = system: soybean (Glycine max L., var. Pella 86, SOY); assay: Pre-emerge test, crop damage soybean; details: pre-emerge, 250 g ai/ha, 14 days after application, rating scale 0-100 (0 no damage, 100 complete death)
From the text: as §1, §2, §3

[14] = system: upland rice (Oryza sp., var.Tebonnet, RICE); assay: Pre-emerge test, crop damage upland rice; details: pre-emerge, 250 g ai/ha, 14 days after application, rating scale 0-100 (0 no damage, 100 complete death)
From the text: as §1, §2, §3

[15] = system: wheat (Triticum aestivum); assay: Pre-emerge test, crop damage wheat; details: pre-emerge, 250 g ai/ha, 14 days after application, rating scale 0-100 (0 no damage, 100 complete death)
From the text: as §1, §2, §3

[16] = system: redroot pigweed (Amaranthus retroflexus, AMR); assay: Post-emerge test, redroot pigweed; details: 250 g ai/ha, 14 days after application, rating scale 0-100 (0 no damage, 100 complete death)
From the text: as §1, §2
(§4) For post-emerge tests, seeds were planted 8-21 days prior to the test to allow emergence and good foliage development prior to application of the test substances. At the time of the post-emerge application, plants of all species were usually at the 2-3 leaf stage of development. In the postemerge test, a commercial non-ionic surfactant was also included (0.25% v/v) to enhance wetting of the leaf surfaces of target plants.
as §3

[17] = system: velvetleaf (Abutilon theophrasti, ABT); assay: Post-emerge test, velvetleaf; details: 250 g ai/ha, 14 days after application, rating scale 0-100 (0 no damage, 100 complete death)
From the text: as §1, §2, §4, §3

[18] = system: sicklepod (Cassia obtusifolia, CAO); assay: Post-emerge test, sicklepod; details: 250 g ai/ha, 14 days after application, rating scale 0-100 (0 no damage, 100 complete death)
From the text: as §1, §2, §4, §3

[19] = system: ivyleaf morningglory (Ipomoea hederacea, IPH); assay: Post-emerge test, ivyleaf morningglory; details: 250 g ai/ha, 14 days after application, rating scale 0-100 (0 no damage, 100 complete death)
From the text: as §1, §2, §4, §3

[20] = system: lambsquarters (Chenopodium album, CHA); assay: Post-emerge test, lambsquarters; details: 250 g ai/ha, 14 days after application, rating scale 0-100 (0 no damage, 100 complete death)
From the text: as §1, §2, §4, §3

[21] = system: common ragweed (Ambrosia artemisiifolia L., AML); assay: Post-emerge test, common ragweed; details: 250 g ai/ha, 14 days after application, rating scale 0-100 (0 no damage, 100 complete death)
From the text: as §1, §2, §4, §3

[22] = system: cocklebur (Xanthium strumariunt, XAS); assay: Post-emerge test, cocklebur; details: 250 g ai/ha, 14 days after application, rating scale 0-100 (0 no damage, 100 complete death)
From the text: as §1, §2, §4, §3

[23] = system: green foxtail (Setaria viridis, SEV); assay: Post-emerge test, green foxtail; details: 250 g ai/ha, 14 days after application, rating scale 0-100 (0 no damage, 100 complete death)
From the text: as §1, §2, §4, §3

[24] = system: barnyardgrass (Echinachloa crus-galli, ECC); assay: Post-emerge test, barnyardgrass; details: 250 g ai/ha, 14 days after application, rating scale 0-100 (0 no damage, 100 complete death)
From the text: as §1, §2, §4, §3

[25] = system: johnsongrass (Sorghum halepense, SOH); assay: Post-emerge test, johnsongrass; details: 250 g ai/ha, 14 days after application, rating scale 0-100 (0 no damage, 100 complete death)
From the text: as §1, §2, §4, §3

[26] = system: large crabgrass (Digitaria sanguinalis, DIS); assay: Post-emerge test, large crabgrass; details: 250 g ai/ha, 14 days after application, rating scale 0-100 (0 no damage, 100 complete death)
From the text: as §1, §2, §4, §3

[27] = system: field corn (Zea mays L., var. Dekalb 535, CORN); assay: Post-emerge test, crop damage field corn; details: post-emerge, 250 g ai/ha, 14 days after application, rating scale 0-100 (0 no damage, 100 complete death)
From the text: as §1, §2, §4, §3

[28] = system: soybean (Glycine max L., var. Pella 86, SOY); assay: Post-emerge test, crop damage soybean; details: post-emerge, 250 g ai/ha, 14 days after application, rating scale 0-100 (0 no damage, 100 complete death)
From the text: as §1, §2, §4, §3

[29] = system: upland rice (Oryza sp., var.Tebonnet, RICE); assay: Post-emerge test, crop damage upland rice; details: post-emerge, 250 g ai/ha, 14 days after application, rating scale 0-100 (0 no damage, 100 complete death)
From the text: as §1, §2, §4, §3

[30] = system: wheat (Triticum aestivum); assay: Post-emerge test, crop damage wheat; details: post-emerge, 250 g ai/ha, 14 days after application, rating scale 0-100 (0 no damage, 100 complete death)
From the text: as §1, §2, §4, §3

| Compound | Pre-emerge Herbicidal Activity AMR (phytotoxicity rating) [1] | Pre-emerge Herbicidal Activity ABT (phytotoxicity rating) [2] | Pre-emerge Herbicidal Activity CAO (phytotoxicity rating) [3] | Pre-emerge Herbicidal Activity IPH (phytotoxicity rating) [4] | Pre-emerge Herbicidal Activity CHA (phytotoxicity rating) [5] | Pre-emerge Herbicidal Activity AML (phytotoxicity rating) [6] | Pre-emerge Herbicidal Activity XAS (phytotoxicity rating) [7] | Pre-emerge Herbicidal Activity SEV (phytotoxicity rating) [8] | Pre-emerge Herbicidal Activity ECC (phytotoxicity rating) [9] | Pre-emerge Herbicidal Activity SOH (phytotoxicity rating) [10] | Pre-emerge Herbicidal Activity DIS (phytotoxicity rating) [11] | Pre-emerge crop damage CORN (phytotoxicity rating) [12] | Pre-emerge crop damage SOY (phytotoxicity rating) [13] | Pre-emerge crop damage RICE (phytotoxicity rating) [14] | Pre-emerge crop damage WHEAT (phytotoxicity rating) [15] | Post-emerge Herbicidal Activity AMR (phytotoxicity rating) [16] | Post-emerge Herbicidal Activity ABT (phytotoxicity rating) [17] | Post-emerge Herbicidal Activity CAO (phytotoxicity rating) [18] | Post-emerge Herbicidal Activity IPH (phytotoxicity rating) [19] | Post-emerge Herbicidal Activity CHA (phytotoxicity rating) [20] | also measured |
| --- | --- | --- | --- | --- | --- | --- | --- | --- | --- | --- | --- | --- | --- | --- | --- | --- | --- | --- | --- | --- | --- |
| CC1Oc2cc(F)c(-c3nn(C)c(C(F)(F)F)c3Cl)c3c2N(C1=O)C(C)C(=O)N3 (mixture of isomers) [1-50] | 100 | 100 | 99 | 90 | 100 | 100 | 75 | 100 | 99 | 100 | 99 | 85 | 60 | 50 | 25 | 100 | 100 | 75 | 100 | 100 | Post-emerge Herbicidal Activity AML (phytotoxicity rating) [21]: 70; Post-emerge Herbicidal Activity XAS (phytotoxicity rating) [22]: 100; Post-emerge Herbicidal Activity SEV (phytotoxicity rating) [23]: 70; Post-emerge Herbicidal Activity ECC (phytotoxicity rating) [24]: 99; Post-emerge Herbicidal Activity SOH (phytotoxicity rating) [25]: 55; Post-emerge Herbicidal Activity DIS (phytotoxicity rating) [26]: 70; Post-emerge crop damage CORN (phytotoxicity rating) [27]: 20; Post-emerge crop damage SOY (phytotoxicity rating) [28]: 75; Post-emerge crop damage RICE (phytotoxicity rating) [29]: 65; Post-emerge crop damage WHEAT (phytotoxicity rating) [30]: 35 |
| CC1Oc2cc(F)c(-c3nn(C)c(C(F)(F)F)c3Cl)c3c2N(C1=O)C(C)C(=O)N3 (mixture of isomers) [1-51] | 100 | 100 | 100 | 98 | 100 | 100 | 99 | 100 | 100 | 100 | 100 | 70 | 65 | 70 | 60 | 100 | 100 | 100 | 100 | 100 | Post-emerge Herbicidal Activity AML (phytotoxicity rating) [21]: 85; Post-emerge Herbicidal Activity XAS (phytotoxicity rating) [22]: 100; Post-emerge Herbicidal Activity SEV (phytotoxicity rating) [23]: 100; Post-emerge Herbicidal Activity ECC (phytotoxicity rating) [24]: 100; Post-emerge Herbicidal Activity SOH (phytotoxicity rating) [25]: 80; Post-emerge Herbicidal Activity DIS (phytotoxicity rating) [26]: 90; Post-emerge crop damage CORN (phytotoxicity rating) [27]: 50; Post-emerge crop damage SOY (phytotoxicity rating) [28]: 60; Post-emerge crop damage RICE (phytotoxicity rating) [29]: 75; Post-emerge crop damage WHEAT (phytotoxicity rating) [30]: 60 |
| CC1Oc2cc(F)c(-c3nn(C)c(C(F)(F)F)c3Cl)c3c2N(C1=O)C(C(C)C)C(=O)N3 (mixture of isomers) [1-53] | 100 | 100 | 100 | 95 | 100 | 95 | 100 | 99 | 95 | 90 | 98 | 25 | 50 | 5 | 15 | 100 | 100 | 50 | 100 | 100 | Post-emerge Herbicidal Activity AML (phytotoxicity rating) [21]: 75; Post-emerge Herbicidal Activity XAS (phytotoxicity rating) [22]: 100; Post-emerge Herbicidal Activity SEV (phytotoxicity rating) [23]: 60; Post-emerge Herbicidal Activity ECC (phytotoxicity rating) [24]: 70; Post-emerge Herbicidal Activity SOH (phytotoxicity rating) [25]: 0; Post-emerge Herbicidal Activity DIS (phytotoxicity rating) [26]: 0; Post-emerge crop damage CORN (phytotoxicity rating) [27]: 5; Post-emerge crop damage SOY (phytotoxicity rating) [28]: 20; Post-emerge crop damage RICE (phytotoxicity rating) [29]: 0; Post-emerge crop damage WHEAT (phytotoxicity rating) [30]: 10 |
